system: HBV rcDNA; experiment: HepDE19 assay with bDNA quantitation of HBV rcDNA; format: cell-based, hepatitis B virus (HBV); conditions: HepDE19 cells, 7 day incubation, rcDNA measured by Quantigene 2.0 bDNA assay, top concentration 25 μM; read-out: DE-19bDNA EC50
Procedure: HepDE19 assay with bDNA quantitation of HBV rcDNA:
HepDE19 (50,000 cells/well) were plated in 96-well collagen-coated tissue-culture treated microtiter plates in DMEM/F12 medium supplemented with 10% fetal bovine serum, 1% penicillin-streptomycin and 1 μg/mL tetracycline and incubated in a humidified incubator at 37° C. and 5% CO2 overnight. Next day, the cells were switched to fresh medium without tetracycline and incubated for 4 hours at 37° C. and 5% CO2. […] The final DMSO concentration in the assay was 0.5%. The plates were incubated for 7 days in a humidified incubator at 37° C. and 5% CO2. Following a 7 day-incubation, the level of rcDNA present in the inhibitor-treated wells was measured using a Quantigene 2.0 bDNA assay kit (Affymetrix, Santa Clara, CA) with HBV specific custom probe set and manufacturers instructions. Concurrently, the effect of compounds on cell viability was assessed using replicate plates, plated at a density of 5,000 cells/well and incubated for 4 days, to determine the ATP content as a measure of cell viability using the cell-titer glo reagent (CTG; Promega Corporation, Madison, WI) as per manufacturer's instructions.

SMILES	EC50
CC(c1c[nH]c(=O)c2cc(F)c(F)cc12)N(C)C(=O)[C@H]1Cc2ccccc2N1 (single isomer, unassigned) [Compound 22]	3.7 µM
CC(c1c[nH]c(=O)c2cc(F)c(F)cc12)N(C)C(=O)c1nc2ccccc2[nH]1 (single isomer, unassigned) [Compound 23, N-(1-(6,7-Difluoro-1-oxo-1,2-dihydroisoquinolin-4-yl)ethyl)-N-methyl-1H-benzo[d]imidazole-2-carboxamide]	≥ 25 µM
CC(c1c[nH]c(=O)c2cc(F)c(F)cc12)N(C)C(=O)c1nc2ccccc2[nH]1 (single isomer, unassigned) [Compound 24, N-(1-(6,7-Difluoro-1-oxo-1,2-dihydroisoquinolin-4-yl)ethyl)-N-methyl-1H-benzo[d]imidazole-2-carboxamide]	0.76 µM
CC(c1c[nH]c(=O)c2cc(F)c(F)cc12)N(C)C(=O)c1cc2ccccc2o1 (single isomer, unassigned) [Compound 25, N-(1-(6,7-Difluoro-1-oxo-1,2-dihydroisoquinolin-4-yl)ethyl)-N-methylbenzofuran-2-carboxamide]	17 µM
CC(c1c[nH]c(=O)c2cc(F)c(F)cc12)N(C)C(=O)c1cc2ccccc2o1 (single isomer, unassigned) [Compound 26, N-(1-(6,7-Difluoro-1-oxo-1,2-dihydroisoquinolin-4-yl)ethyl)-N-methylbenzofuran-2-carboxamide]	0.35 µM
CC(c1c[nH]c(=O)c2cc(F)c(F)cc12)N(CCCO)C(=O)c1cc2ccccc2[nH]1 (single isomer, unassigned) [Compound 27, N-(1-(6,7-Difluoro-1-oxo-1,2-dihydroisoquinolin-4-yl)ethyl)-N-(3-hydroxypropyl)-1H-indole-2-carboxamide]	2.9 µM
CC(c1c[nH]c(=O)c2cc(F)c(F)cc12)N(CCCO)C(=O)c1cc2ccccc2[nH]1 (single isomer, unassigned) [Compound 28, N-(1-(6,7-Difluoro-1-oxo-1,2-dihydroisoquinolin-4-yl)ethyl)-N-(3-hydroxypropyl)-1H-indole-2-carboxamide]	0.04 µM
CC(c1c[nH]c(=O)c2cc(F)c(F)cc12)N(C)C(=O)[C@@H]1Cc2ccccc2N1 (single isomer, unassigned) [Compound 30]	0.02 µM
CC(c1c[nH]c(=O)c2cc(F)c(F)cc12)N(C)C(=O)[C@@H]1Cc2ccccc2N1 (single isomer, unassigned) [Compound 31]	20 µM
CC(c1c[nH]c(=O)c2cc(F)c(F)cc12)N(C)C(=O)[C@H]1Cc2ccccc2CN1 (single isomer, unassigned) [Compound 32]	≥ 25 µM
CC(c1c[nH]c(=O)c2cc(F)c(F)cc12)N(C)C(=O)[C@H]1Cc2ccccc2CN1 (single isomer, unassigned) [Compound 33]	6.6 µM
CC(c1c[nH]c(=O)c2cc(F)c(F)cc12)N(C)C(=O)c1cc2ccccc2n1C (single isomer, unassigned) [Compound 43, N-(1-(6,7-Difluoro-1-oxo-1,2-dihydroisoquinolin-4-yl)ethyl)-N,1-dimethyl-1H-indole-2-carboxamide]	4.3 µM
CC(c1c[nH]c(=O)c2cc(F)c(F)cc12)N(C)C(=O)c1cc2ccccc2n1C (single isomer, unassigned) [Compound 44, N-(1-(6,7-Difluoro-1-oxo-1,2-dihydroisoquinolin-4-yl)ethyl)-N,1-dimethyl-1H-indole-2-carboxamide]	0.3 µM
CC(c1c[nH]c(=O)c2cc(F)c(F)cc12)N(C)C(=O)c1cn2ccccc2n1 (single isomer, unassigned) [Compound 45, N-(1-(6,7-Difluoro-1-oxo-1,2-dihydroisoquinolin-4-yl)ethyl)-N-methylimidazo[1,2-a]pyridine-2-carboxamide]	2.5 µM
CC(c1c[nH]c(=O)c2cc(F)c(F)cc12)N(C)C(=O)c1cn2ccccc2n1 (single isomer, unassigned) [Compound 46, N-(1-(6,7-Difluoro-1-oxo-1,2-dihydroisoquinolin-4-yl)ethyl)-N-methylimidazo[1,2-a]pyridine-2-carboxamide]	21 µM
CC(c1c[nH]c(=O)c2cc(F)c(F)cc12)N(C)C(=O)c1cc2c([nH]1)CCC2 (single isomer, unassigned) [Compound 47, N-(1-(6,7-Difluoro-1-oxo-1,2-dihydroisoquinolin-4-yl)ethyl)-N-methyl-1,4,5,6-tetrahydro cyclopenta[b]pyrrole-2-carboxamide]	≥ 25 µM
CC(c1c[nH]c(=O)c2cc(F)c(F)cc12)N(C)C(=O)c1cc2c([nH]1)CCC2 (single isomer, unassigned) [Compound 48, N-(1-(6,7-Difluoro-1-oxo-1,2-dihydroisoquinolin-4-yl)ethyl)-N-methyl-1,4,5,6-tetrahydro cyclopenta[b]pyrrole-2-carboxamide]	0.15 µM
CC(c1c[nH]c(=O)c2cc(F)c(F)cc12)N(C)C(=O)c1nc2cc(F)c(F)cc2[nH]1 (single isomer, unassigned) [Compound 49, N-(1-(6,7-Difluoro-1-oxo-1,2-dihydroisoquinolin-4-yl)ethyl)-5,6-difluoro-N-methyl-1H-benzo[d]imidazole-2-carboxamide]	3.1 µM
CC(c1c[nH]c(=O)c2cc(F)c(F)cc12)N(C)C(=O)c1nc2cc(F)c(F)cc2[nH]1 (single isomer, unassigned) [Compound 50, N-(1-(6,7-Difluoro-1-oxo-1,2-dihydroisoquinolin-4-yl)ethyl)-5,6-difluoro-N-methyl-1H-benzo[d]imidazole-2-carboxamide]	0.29 µM
CC(c1c[nH]c(=O)c2cc(F)c(F)cc12)N(C)C(=O)c1c[nH]c2ccccc12 (single isomer, unassigned) [Compound 53, N-(1-(6,7-Difluoro-1-oxo-1,2-dihydroisoquinolin-4-yl)ethyl)-N-methyl-1H-indole-3-carboxamide]	≥ 25 µM
CC(c1c[nH]c(=O)c2cc(F)c(F)cc12)N(C)C(=O)c1c[nH]c2ccccc12 (single isomer, unassigned) [Compound 54, N-(1-(6,7-Difluoro-1-oxo-1,2-dihydroisoquinolin-4-yl)ethyl)-N-methyl-1H-indole-3-carboxamide]	5.1 µM
CC(c1c[nH]c(=O)c2cc(F)c(F)cc12)N(C)C(=O)c1n[nH]c2ccccc12 (single isomer, unassigned) [Compound 56, N-(1-(6,7-Difluoro-1-oxo-1,2-dihydroisoquinolin-4-yl)ethyl)-N-methyl-2H-indazole-3-carboxamide]	≥ 25 µM
CC(c1c[nH]c(=O)c2c(F)c(F)ccc12)N(C)C(=O)c1cc2c([nH]1)CCC2 (single isomer, unassigned) [Compound 57, N-(1-(7,8-Difluoro-1-oxo-1,2-dihydroisoquinolin-4-yl)ethyl)-N-methyl-1,4,5,6-tetrahydrocyclopenta[b]pyrrole-2-carboxamide]	12 µM
CC(c1c[nH]c(=O)c2c(F)c(F)ccc12)N(C)C(=O)c1cc2c([nH]1)CCC2 (single isomer, unassigned) [Compound 58, N-(1-(7,8-Difluoro-1-oxo-1,2-dihydroisoquinolin-4-yl)ethyl)-N-methyl-1,4,5,6-tetrahydrocyclopenta[b]pyrrole-2-carboxamide]	1.8 µM

same assay, conditions: Hepatitis B virus, HepDE19, 168 h, HepDE19 cells, 7 day incubation, rcDNA measured by Quantigene 2.0 bDNA assay, top concentration 25 μM; read-out: DE-19bDNA EC50

SMILES	EC50
CC(c1c[nH]c(=O)c2cc(F)c(F)cc12)N(C)C(=O)c1n[nH]c2ccccc12 (single isomer, unassigned) [Compound 55, N-(1-(6,7-Difluoro-1-oxo-1,2-dihydroisoquinolin-4-yl)ethyl)-N-methyl-2H-indazole-3-carboxamide]	16 µM
CC(c1c[nH]c(=O)c2cc(F)c(F)cc12)N(C)C(=O)c1cc2ccccn2c1 (single isomer, unassigned) [Compound 70, N-(1-(6,7-Difluoro-1-oxo-1,2-dihydroisoquinolin-4-yl)ethyl)-N-methylindolizine-2-carboxamide]	0.02 µM

same assay, conditions: read-out: DE-19bDNA EC50; HepDE19 cells, 7 day incubation, rcDNA measured by Quantigene 2.0 bDNA assay, top concentration 25 μM

SMILES	EC50
CC(c1c[nH]c(=O)c2cc(F)c(F)cc12)N(C)C(=O)c1cc2cccnc2[nH]1 (single isomer, unassigned) [Compound 51, N-(1-(6,7-Difluoro-1-oxo-1,2-dihydroisoquinolin-4-yl)ethyl)-N-methyl-1H-pyrrolo[2,3-b]pyridine-2-carboxamide]	0.79 µM
CC(c1c[nH]c(=O)c2cc(F)c(F)cc12)N(C)C(=O)c1cc2cccnc2[nH]1 (single isomer, unassigned) [Compound 52, N-(1-(6,7-Difluoro-1-oxo-1,2-dihydroisoquinolin-4-yl)ethyl)-N-methyl-1H-pyrrolo[2,3-b]pyridine-2-carboxamide]	≥ 25 µM
CC(c1c[nH]c(=O)c2cc(F)c(F)cc12)N(C)C(=O)c1cc2ccccn2c1 (single isomer, unassigned) [Compound 69, N-(1-(6,7-Difluoro-1-oxo-1,2-dihydroisoquinolin-4-yl)ethyl)-N-methylindolizine-2-carboxamide]	5.7 µM
CC(c1c[nH]c(=O)c2c(F)c(F)ccc12)N(C)C(=O)c1cc2ccccn2c1 (single isomer, unassigned) [Compound 71, N-(1-(7,8-Difluoro-1-oxo-1,2-dihydroisoquinolin-4-yl)ethyl)-N-methylindolizine-2-carboxamide]	6.5 µM
